# Results reported in patent publication US9205091B2, “Diazeniumdiolated compounds, pharmaceutical compositions, and method of treating cancer” (The United States of America, as represented by the …, priority 2009, dated 2015).
# How the values were obtained:
# [1] = system: H1944 cells; test: H1944 xenograft in athymic NCr-nu/nu mice, JS-K (Example 3); format: in vivo; conditions: 6 μmol/kg i.v., three times a week for three weeks
# Experimental: (§1) H1944 or H1703 cells are injected at 5×10^6 s.c. into a flank of 7-week-old female athymic NCr-nu/nu mice (Charles River, Wilmington, Mass.). The drug injections are initiated when the tumors reached 2×2×2 mm (typically 3-4 weeks). JS-K is formulated in Pluronic P123 (P123) (BASF, Florham Park, N.J.) micelles. Animals are treated three times a week for three weeks with i.v. tail vein injections of either vehicle (2.25% P123 in PBS) or JS-K (6 μmol/kg in the vehicle). Tumors are measured using a caliper twice a week, and the tumor volumes are calculated using a formula for ellipsoid volume, π/6×L×W×H (Tomayko and Reynolds, 1989). The non-parametric Mann-Whitney test is utilized for statistical comparisons of tumor volumes at each time point. Body weights are taken before each drug injection. Animals are sacrificed 2 h after the last drug injection. Blood is collected by cardiac puncture under isoflurane anesthesia, for testing for cytokines. Cytokines in serum are measured using a mouse Th1/2 multiplex assay (Meso Scale Discovery, Gaithersburg, Md.), according to the manufacturer's protocol. There were 9-13 mice/group at termination.
# [2] = system: MnSOD; test: Anti-nitrotyrosine immunoprecipitation, anti-MnSOD immunoblot; format: cell-based, human; conditions: H1703 cells, 1 h
# Experimental: For immunoprecipitation, 300 μg of the cell lysate is incubated on the rotator overnight at 4° C. with 2 μg of anti-nitrotyrosine mAb and 30 μL of protein G agarose. After washing three times with lysis buffer, the beads are suspended in 30 μL of 2×NuPAGE (Invitrogen, Carlsbad, Calif.) loading buffer and heated for 10 min at 95° C. Immunoprecipitated material is resolved on SDS-PAGE followed by immunoblotting with anti-MnSOD antibody.
# Western blot analysis is performed as previously described (Romanowska et al., Free Radical Biol. Med., 43:1145-1155 (2007)). Primary antibodies for caspases 3, 7, PARP and cleaved PARP, Bax, cytochrome c (Cell Signaling Technology, Danvers, Mass.), peroxiredoxins 1-6 (LabFrontier, Seoul, Korea), and nitrotyrosine and MnSOD (Millipore, Billerica, Mass.) are used.
# [3] = system: H1944 cells; test: Intracellular nitric oxide, DAF-FM diacetate; format: cell-based, human; conditions: 1 μM, up to 60 min
# Experimental: (§2) Cells growing on 6-well plates are loaded with 2.5 μM DAF-FM diacetate in HBSS at 37° C. and 5% CO2. After 30 min of incubation the cells are rinsed with HBSS to remove excess probe, and JS-K in fresh HBSS is added to the cells at 1 μM final concentration. After 30 or 60 min incubation the fluorescence of the benzotriazole derivative formed on DAF-FM's reaction with aerobic NO is analyzed using a Perkin Elmer LS50B luminescence spectrometer with the excitation source at 495 nm and emission at 515 nm. All experiments are performed at least three times, each time in triplicate.
# [4] = system: H1703 cells; test: Intracellular nitric oxide, DAF-FM diacetate; format: cell-based, human; conditions: 1 μM, up to 60 min
# Experimental: as §2
# [5] = system: H1944 cells; test: Intracellular ROS/RNS, CM-H2DCF-DA (DCF fluorescence); format: cell-based, human; conditions: up to 60 min
# Experimental: (§3) Intracellular level of reactive oxygen/nitrogen species is quantified by the oxidation of the ROS/RNS-sensitive fluorophore 5-(and-6)-chloromethyl-2′,7′-dichlorodihydrofluorescein diacetate (CM-H2DCF-DA) (Invitrogen, Carlsbad, Calif.). Cells growing on 6-well plates (6×10^5/well) are loaded with 5 μM CM-H2DCF-DA in Hanks' balanced salt solution (HBSS) at 37° C. and 5% CO2. After 30 min of incubation, HBSS containing the probe is removed, cells are rinsed with HBSS and 3 mL of fresh HBSS is added to each well followed by addition of JS-K or DMSO as a control. After 30 min or 60 min the cells are collected by scraping in HBSS and 2′,7′-dichlorofluorescein (DCF) fluorescence is measured using a Perkin Elmer LS50B luminescence spectrometer with the excitation source at 488 nm and emission at 530 nm.
# [6] = system: H1703 cells; test: as above; format: cell-based, human; conditions: up to 60 min
# Experimental: as §3
# [7] = Body weight of xenograft mice, JS-K (Example 3); format: in vivo; conditions: 6 μmol/kg i.v., three times a week for three weeks
# Experimental: as §1
# [8] = system: H1703 cells; test: H1703 xenograft in athymic NCr-nu/nu mice, tumor weights (Example 10); format: in vivo; conditions: 6 micromols/kg i.v., three times a week for three weeks
# Experimental: H1703 cells are harvested at 80% confluence, washed with PBS, and suspended in PBS. The cells are injected at 5×10^6 s.c. into a flank of 7-week-old female athymic NCr-nu/nu mice (Charles River). […] Animals are treated three times a week for three weeks with i.v. tail vein injections of either vehicle (2.25% P-123 in PBS) or 1 or 2 (6 micromols/kg in the vehicle) or 6 (8 micromols/kg). Body weights are taken before each drug injection. Animals are sacrificed two hours after the last drug injection and the tumors are excised and weighed. There are 13-15 mice/group at termination. The non-parametric Mann-Whitney test is utilized for statistical comparisons of tumor weights.
# [9] = system: H1944 cells; test: Total glutathione / GSSG content after JS-K treatment; format: cell-based, human; conditions: JS-K 10 μM, 1 h
# Experimental: (§4) H1703 or H1944 cells are plated in 6-well plates at 6×10^5 per well. Cells are treated with JS-K for 1 h at 1 μM (H1703) or 10 μM (H1944). After treatment, cells are washed with PBS, scraped into PBS and collected by centrifugation at 800 g for 10 min. The pellets are resuspended in 80 μL of 10 mM HCl and lysed by two successive rounds of freeze and thawing. Twenty μL of a 5% 5-sulfosalicylic acid solution is added to the lysate. The precipitate is removed by centrifugation at 8,000 g for 10 min, and the supernatant is analyzed for total glutathione content using total glutathione quantification kit (Dojindo, Rockville, Md.) according to the manufacturer's protocol. To measure GSSG concentration, cells are treated and lysed in accordance with the procedure above. The lysate is then neutralized with 0.1 M NaOH and treated with 4-vinylpyridine at a final concentration of 50 mM for 30 min.
# [10] = system: H1703 cells; test: as above; format: cell-based, human; conditions: JS-K 1 μM, 1 h
# Experimental: as §4
# [11] = system: H1703 cells; test: H1703 xenograft in athymic NCr-nu/nu mice, JS-K (Example 3); format: in vivo; conditions: 6 μmol/kg i.v., three times a week for three weeks
# Experimental: as §1
compound,measurement,setting,value
CCOC(=O)N1CCN(/[N+]([O-])=N/Oc2ccc([N+](=O)[O-])cc2[N+](=O)[O-])CC1 [Compound 1],growth of xenografted tumor cells vs vehicle,[1],significantly reduces growth
same,nitrotyrosine level in MnSOD,[2],increase
same,intracellular NO,[3],increase
same,intracellular NO,[4],increase
same,DCF-reactive material,[5],not
same,DCF-reactive material,[6],increase
same,effect on body weight,[7],did not affect body weight
same,growth of H1703 human NSCLC cells in vivo vs vehicle,[8],significantly reduced growth
same,reduction of the tumor weights,[8]; vs vehicle,49%
same,GSH μmol/mg protein,[9],0.13 μmol/mg protein
same,GSSG μmol/mg protein,[9],0.014 μmol/mg protein
same,GSH μmol/mg protein,[10],1.27 μmol/mg protein
same,GSSG μmol/mg protein,[10],0.042 μmol/mg protein
same,growth of xenografted tumor cells vs vehicle,[11],significantly reduces growth
